Reference: patent publication US10306878B2, “Insect pest control agent” (priority 2013, dated 2019)

System: female cockroach (periplaneta fuliginosa)
Test: Efficacy Test 1: Concentrate Dropping Test
Assay type: in vivo
Conditions: for Time until the subject insect stops moving (seconds) Average / Time until the subject insect stops moving (seconds) No. 1 / Time until the subject insect stops moving (seconds) No. 2 / Time until the subject insect stops moving (seconds) No. 3 / Time until the subject insect stops moving (seconds) No. 4 / Time until the subject insect stops moving (seconds) No. 5: 0.5 mL dropped between thorax and abdomen; for Time until the subject insect stops moving (seconds) Average: average of five tests; for Time until the subject insect stops moving (seconds) No. 1: repeat No. 1; for Time until the subject insect stops moving (seconds) No. 2: repeat No. 2; for Time until the subject insect stops moving (seconds) No. 3: repeat No. 3; for Time until the subject insect stops moving (seconds) No. 4: repeat No. 4; for Time until the subject insect stops moving (seconds) No. 5: repeat No. 5; for Lethality (%) after 24 hours: 0.5 mL dropped, 24 hours at 20° C., humidity 26%, five tests
Description: A plastic cup (capacity of 860 ml) that is open at the top was provided, and butter was spread on the upper part of the cup interior. Then, as a subject insect, one female cockroach (periplaneta fuliginosa) was gently placed on its back at the bottom of the plastic cup.
After confirming that the subject insect is lying on its back, 0.5 mL of the subject agent in Table 1 was dropped on to the insect between the thorax and the abdomen using a pipet, and the time (seconds) until the subject insect's movement completely stopped was measured.
Subsequently, the subject insect was transferred to another plastic cup and left in a room having a temperature of 20° C. and a humidity of 26%. The number of subject insects that died after 24 hours was counted. The test was repeated five times to obtain the lethality (%) based on the average of the results.

SMILES | Time until the subject insect stops moving (seconds) Average [s] | Time until the subject insect stops moving (seconds) No. 1 [s] | Time until the subject insect stops moving (seconds) No. 2 [s] | Time until the subject insect stops moving (seconds) No. 3 [s] | Time until the subject insect stops moving (seconds) No. 4 [s] | Time until the subject insect stops moving (seconds) No. 5 [s] | Lethality (%) after 24 hours [%]
FC(F)C(F)(F)C(F)(F)C(F)(F)C(F)(F)C(F)(F)F [Comparative Example 2, 1H-Tridecafluorohexane] | 56.4 | 54 | 50 | 53 | 62 | 63 | 40
FC(F)(F)/C=C/Cl [Example 1, Trans-1-chloro-3,3,3-trifluoropropene] | 1.4 | 2 | 1 | 1 | 1 | 2 | 80
